Test results published in article PMC3076140 (Journal of medicinal chemistry, 2011).

What was measured:
melanocortin receptors = conditions: lactam bridge template; cited from earlier work
[1] = system: mouse MC1 and MC3-5 receptors

MC4R versus MC3R selectivity ([1]; from EC50 values of Table 2) [fold] | agonist efficacy at all the melanocortin receptor isoforms examined ([1]; mMC1R, mMC3R, mMC4R, mMC5R, maximal efficacy compared to NDP-MSH control) | Substance | agonist activity at the melanocortin receptors (melanocortin receptors)
 |  | Tyr-c[β-Asp-His-DPhe-Arg-Trp-Asn-Ala-Phe-Dpr]-Tyr-NH2 (sidechain bridge or staple) | full agonist at the melanocortin receptors that is as potent as the endogenous α-MSH agonist
5 | full agonists | Tyr-c[Cys-His-D-Phe-(R)-MIM(Arg)-Trp-Asn-Ala-Phe-Cys]-Tyr-NH2 [compound 7] | 
